Data taken from patent publication US10988459B2 (priority 2015, dated 2021).

The compounds below were run against human RIP1 kinase domain (2-375) (Homo sapiens (Human), UniProt Q13546) (assay: biochemical). Settings: Table 1; apparent Ki (Morrison tight-binding fit); 50 nM RIP1 kinase domain, 50 uM ATP, 2 hours incubation; read-out: RIP1 Ki.
Assay type: biochemical
Outline: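 50 nM purified kinase domain from baculovirus-infected insect cells, incubated 2 h with compound in 50 mM Hepes pH 7.5, 30 mM MgCl2, 1 mM DTT, 50 uM ATP, 0.002% Brij-35, 0.5% DMSO. ADP formation read by Transcreener FP at 633 nm excitation. Ki^app fitted with the Morrison tight-binding equation.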

Chain of human RIP1 kinase domain (2-375) (Q13546 2-375): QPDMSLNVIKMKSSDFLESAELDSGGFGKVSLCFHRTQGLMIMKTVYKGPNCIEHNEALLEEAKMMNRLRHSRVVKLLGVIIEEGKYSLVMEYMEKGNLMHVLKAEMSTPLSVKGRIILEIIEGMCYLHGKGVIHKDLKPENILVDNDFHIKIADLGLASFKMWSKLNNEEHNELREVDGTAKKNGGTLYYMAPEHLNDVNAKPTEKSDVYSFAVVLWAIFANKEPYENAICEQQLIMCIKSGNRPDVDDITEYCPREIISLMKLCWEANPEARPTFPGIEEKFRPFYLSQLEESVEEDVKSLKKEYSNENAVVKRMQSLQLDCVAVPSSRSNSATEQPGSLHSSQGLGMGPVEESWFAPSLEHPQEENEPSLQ

Compound | Ki [nM]
CN1C(=O)[C@@H](NC(=O)c2n[nH]c3c2CN(CC(F)(F)F)CC3)COc2ccccc21 [Example 5, (S)—N-(5-methyl-4-oxo-2,3,4,5-tetrahydrobenzo[b][1,4]oxazepin-3-yl)-5-(2,2,2-trifluoroethyl)-4,5,6,7-tetrahydro-1H-pyrazolo[4,3-c]pyridine-3-carboxamide] | 1500
CN1C(=O)[C@@H](NC(=O)c2cc3n(n2)CCCN(c2ccccc2)C3)COc2ccccc21 [Example 6, N-[(3S)-5-methyl-4-oxo-2,3-dihydro-1,5-benzoxazepin-3-yl]-5-phenyl-4,6,7,8-tetrahydro pyrazolo[1,5-a][1,4]diazepine-2-carboxamide] | 375
CN1C(=O)[C@@H](NC(=O)c2n[nH]c3c2CC(c2ccccc2)OC3)COc2ccccc21 (stereo partly drawn) [Example 9, N—((S)-5-methyl-4-oxo-2,3,4,5-tetrahydrobenzo[b][1,4]oxazepin-3-yl)-5-phenyl-1,4,5,7-tetrahydropyrano[3,4-c]pyrazole-3-carboxamide] | 282
CC1Cn2c(cnc2C(=O)N[C@H]2COc3ccccc3N(C)C2=O)CO1 (stereo partly drawn) [Example 10, 6-methyl-N—((S)-5-methyl-4-oxo-2,3,4,5-tetrahydrobenzo[b][1,4]oxazepin-3-yl)-6,8-dihydro-5H-imidazo[5,1-c][1,4]oxazine-3-carboxamide] | 2600
CC1CCc2cnc(C(=O)N[C@H]3COc4ccccc4N(C)C3=O)n2C1 (stereo partly drawn) [Example 11, 6-methyl-N—((S)-5-methyl-4-oxo-2,3,4,5-tetrahydrobenzo[b][1,4]oxazepin-3-yl)-5,6,7,8-tetrahydroimidazo[1,5-a]pyridine-3-carboxamide] | 329
CN1C(=O)[C@@H](NC(=O)c2n[nH]c3c2CCC(c2ccccc2)C3)COc2ccccc21 (stereo partly shown) [Example 12, N-(5-methyl-4-oxo-2,3,4,5-tetrahydrobenzo[b][1,4]oxazepin-3-yl)-6-phenyl-4,5,6,7-tetrahydro-1H-indazole-3-carboxamide] | > 3100
O=C(N[C@H]1COc2[nH]ncc2NC1=O)c1ccn(Cc2ccc(F)c(F)c2)n1 [Example 16, (S)-1-(3,4-difluorobenzyl)-N-(5-oxo-4,5,6,7-tetrahydro-1H-pyrazolo[3,4-b][1,4]oxazepin-6-yl)-1H-pyrazole-3-carboxamide] | > 10000
O=C(N[C@H]1COc2[nH]ncc2NC1=O)c1cn(Cc2ccc(F)c(F)c2)cn1 [Example 17, 1-[(3,4-difluorophenyl)methyl]-N-[(6S)-5-oxo-1,4,6,7-tetrahydropyrazolo[3,4-b][1,4]oxazepin-6-yl]imidazole-4-carboxamide] | > 10000
CN1C(=O)[C@@H](NC(=O)c2n[nH]c3c2CC(n2cccn2)CC3)COc2ccccc21 (stereo partly drawn) [Example 20, N—((S)-5-methyl-4-oxo-2,3,4,5-tetrahydrobenzo[b][1,4]oxazepin-3-yl)-5-(1H-pyrazol-1-yl)-4,5,6,7-tetrahydro-1H-indazole-3-carboxamide] | 745
CN1C(=O)[C@@H](NC(=O)c2cc3c(cn2)COC3(C)C)COc2ccccc21 [Example 22, (S)-1,1-dimethyl-N-(5-methyl-4-oxo-2,3,4,5-tetrahydrobenzo[b][1,4]oxazepin-3-yl)-1,3-dihydrofuro[3,4-c]pyridine-6-carboxamide] | 898
CN1C(=O)[C@@H](NC(=O)c2cc3c(cn2)CCCC3)COc2ccccc21 [Example 23, (S)—N-(5-methyl-4-oxo-2,3,4,5-tetrahydrobenzo[b][1,4]oxazepin-3-yl)-5,6,7,8-tetrahydroisoquinoline-3-carboxamide] | 2000
CN1C(=O)[C@@H](NC(=O)c2n[nH]c3c2CC(c2ccccc2)CC3)COc2ccccc21 (stereo partly drawn) [Example 24, N—((S)-5-methyl-4-oxo-2,3,4,5-tetrahydrobenzo[b][1,4]oxazepin-3-yl)-5-phenyl-4,5,6,7-tetrahydro-1H-indazole-3-carboxamide] | 27.9
CC1Cc2c(C(=O)N[C@H]3COc4[nH]ncc4NC3=O)n[nH]c2CO1 (stereo partly drawn) [Example 25, 5-methyl-N—((S)-5-oxo-4,5,6,7-tetrahydro-1H-pyrazolo[3,4-b][1,4]oxazepin-6-yl)-1,4,5,7-tetrahydropyrano[3,4-c]pyrazole-3-carboxamide] | > 10000
CN1C(=O)[C@@H](NC(=O)c2nnc(Cc3ccccc3)[nH]2)CCn2nccc21 [Example 27, (S)-5-benzyl-N-(4-methyl-5-oxo-5,6,7,8-tetrahydro-4H-pyrazolo [1,5-a][1,3]diazepin-6-yl)-4H-1,2,4-triazole-3-carboxamide] | 45.4
Cc1cc2n(n1)CCC(NC(=O)c1nnc(Cc3ccccc3)[nH]1)C(=O)N2C (stereo not shown) [Example 28, 5-benzyl-N-(2,4-dimethyl-5-oxo-5,6,7,8-tetrahydro-4H-pyrazolo[1,5-a][1,3]diazepin-6-yl)-4H-1,2,4-triazole-3-carboxamide] | 137
CN1C(=O)C(NC(=O)c2nnc(Cc3ccccc3)[nH]2)CCn2nc(C3CC3)cc21 (stereo not shown) [Example 29, 5-benzyl-N-(2-cyclopropyl-4-methyl-5-oxo-7,8-dihydro-6H-pyrazolo[1,5-a][1,3]diazepin-6-yl)-4H-1,2,4-triazole-3-carboxamide] | 117
CN1C(=O)C(NC(=O)c2nnc(Cc3ccccc3)[nH]2)CCn2nc(C(F)(F)F)cc21 (stereo not shown) [Example 30, 5-benzyl-N-[4-methyl-5-oxo-2-(trifluoromethyl)-7,8-dihydro-6H-pyrazolo[1,5-a][1,3]diazepin-6-yl]-4H-1,2,4-triazole-3-carboxamide] | 208
Cc1cnn2c1N(C)C(=O)C(NC(=O)c1nnc(Cc3ccccc3)[nH]1)CC2 (stereo not shown) [Example 31, 5-benzyl-N-(3,4-dimethyl-5-oxo-7,8-dihydro-6H-pyrazolo[1,5-a][1,3]diazepin-6-yl)-4H-1,2,4-triazole-3-carboxamide] | 140
CN1C(=O)[C@@H](NC(=O)c2n[nH]c3c2CCCC3)COc2ccccc21 [Example 32, (S)—N-(5-methyl-4-oxo-2,3,4,5-tetrahydrobenzo[b][1,4]oxazepin-3-yl)-4,5,6,7-tetrahydro-1H-indazole-3-carboxamide] | 3400
CN1C(=O)[C@@H](NC(=O)c2n[nH]c3ccccc23)COc2ccccc21 [Example 33, (S)—N-(5-methyl-4-oxo-2,3,4,5-tetrahydrobenzo[b][1,4]oxazepin-3-yl)-1H-indazole-3-carboxamide] | 3500
CN1C(=O)[C@@H](NC(=O)c2n[nH]c3c2CC(C(F)(F)F)CC3)COc2ccccc21 (stereo partly drawn) [Example 34, N-((S)-5-methyl-4-oxo-2,3,4,5-tetrahydrobenzo[b][1,4]oxazepin-3-yl)-5-(trifluoromethyl)-4,5,6,7-tetrahydro-1H-indazole-3-carboxamide] | 7.68
CN1C(=O)[C@@H](NC(=O)c2ncc3ccc(C(F)(F)F)cn23)COc2ccccc21 [Example 35, N-[(3S)-5-methyl-4-oxo-2,3-dihydro-1,5-benzoxazepin-3-yl]-6-(trifluoromethyl)imidazo[1,5-a]pyridine-3-carboxamide] | 8.74
CN1C(=O)[C@@H](NC(=O)c2ncc3n2CC(C(F)(F)F)CC3)COc2ccccc21 (stereo partly drawn) [Example 36, N—((S)-5-methyl-4-oxo-2,3,4,5-tetrahydrobenzo[b][1,4]oxazepin-3-yl)-6-(trifluoromethyl)-5,6,7,8-tetrahydroimidazo[1,5-a]pyridine-3-carboxamide] | 185
CN1C(=O)[C@@H](NC(=O)c2ncn3ccc(C(F)(F)F)cc23)COc2ccccc21 [Example 37, N-[(3S)-5-methyl-4-oxo-2,3-dihydro-1,5-benzoxazepin-3-yl]-7-(trifluoromethyl)imidazo[1,5-a]pyridine-1-carboxamide] | 5.08
CN1C(=O)[C@@H](NC(=O)c2ncn3c2CC(C(F)(F)F)CC3)COc2ccccc21 (stereo partly drawn) [Example 38, N-[(3S)-5-methyl-4-oxo-2,3-dihydro-1,5-benzoxazepin-3-yl]-7-(trifluoromethyl)-5,6,7,8-tetrahydroimidazo[1,5-a]pyridine-1-carboxamide] | 87.4
CN1C(=O)[C@@H](NC(=O)c2n[nH]c3c2CCCCC3)COc2ccccc21 [Example 44, (S)-N-(5-methyl-4-oxo-2,3,4,5-tetrahydrobenzo[b][1,4]oxazepin-3-yl)-1,4,5,6,7,8-hexahydrocyclohepta[c]pyrazole-3-carboxamide] | 3000
CC1CCc2n[nH]c(C(=O)N[C@H]3CCc4cc(Cl)ccc4NC3=O)c2C1 (stereo partly drawn) [Example 46, N-((S)-7-chloro-2-oxo-2,3,4,5-tetrahydro-1H-benzo[b]azepin-3-yl)-5-methyl-4,5,6,7-tetrahydro-2H-indazole-3-carboxamide] | 135
CC(C)(C)C1CCc2[nH]nc(C(=O)N[C@H]3CCc4cc(Cl)ccc4NC3=O)c2C1 (stereo partly drawn) [Example 47, 5-(tert-butyl)-N-((S)-7-chloro-2-oxo-2,3,4,5-tetrahydro-1H-benzo[b]azepin-3-yl)-4,5,6,7-tetrahydro-1H-indazole-3-carboxamide] | 350
CN1C(=O)[C@@H](NC(=O)c2n[nH]c3c2CCC3)COc2ccccc21 [Example 48, (S)-N-(5-methyl-4-oxo-2,3,4,5-tetrahydrobenzo[b][1,4]oxazepin-3-yl)-1,4,5,6-tetrahydrocyclopenta[c]pyra7.ole-3-carboxamide] | 8600

Same assay, conditions: read-out: RIP1 Ki

Compound | Ki [nM]
CN1C(=O)[C@@H](NC(=O)c2n[nH]c3c2CC(C)(C)CC3)COc2ccccc21 [Example 18, 5,5-dimethyl-N-[(3S)-5-methyl-4-oxo-2,3-dihydro-1,5-benzoxazepin-3-yl]-1,4,6,7-tetrahydroindazole-3-carboxamide] | 415
CC1CCc2n[nH]c(C(=O)N[C@H]3COc4ccccc4N(C)C3=O)c2C1 (stereo partly drawn) [Example 45, 5-methyl-N-((S)-5-methyl-4-oxo-2,3,4,5-tetrahydrobenzo[b][1,4]oxazepin-3-yl)-4,5,6,7-tetrahydro-2H-indazole-3-carboxamide] | 62.6
